Source: the supplement of paper PMC10307832

Key:
Experiment in all cases: relative viability (nuclei count vs DMSO), 5 days (fraction); higher = more cells survive
Cediranib + Foretinib = compound: COc1cc2c(Oc3ccc4[nH]c(C)cc4c3F)ncnc2cc1OCCCN1CCCC1 [Cediranib] + COc1cc2c(Oc3ccc(NC(=O)C4(C(=O)Nc5ccc(F)cc5)CC4)cc3F)ccnc2cc1OCCCN1CCOCC1 [Foretinib] (partner 0.25 µM)
Summary of the method: (§1)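 Lung cancer cell lines, seeded in 1536-well plates, were treated the following day by pin tool with a single drug or with five library-drug doses (not always all listed) in √10 steps on top of a fixed anchor-drug dose. Cells were fixed and nuclei stained in one step after 5 days, and nuclei were counted. Relative viability is the nuclei count for treated wells divided by that for vehicle wells, reported as medians of duplicate plates.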

Cediranib + Vorinostat = compound: COc1cc2c(Oc3ccc4[nH]c(C)cc4c3F)ncnc2cc1OCCCN1CCCC1 [Cediranib] + O=C(CCCCCCC(=O)Nc1ccccc1)NO [Vorinostat] (partner 1 µM)
Summary of the method: as §1

[1] = compound: O=C(C[C@H]1NCCC[C@@H]1O)Cn1cnc2cc(Br)c(Cl)cc2c1=O (racemic) [Halofuginone] + CC(C)C[C@H](NC(=O)[C@H](Cc1ccccc1)NC(=O)c1cnccn1)B(O)O [Bortezomib] (partner 0.002 µM)
Summary of the method: as §1

[2] = compound: O=C(C[C@H]1NCCC[C@@H]1O)Cn1cnc2cc(Br)c(Cl)cc2c1=O (racemic) [Halofuginone] + CCNC(=O)c1noc(-c2cc(C(C)C)c(O)cc2O)c1-c1ccc(CN2CCOCC2)cc1 [Luminespib] (partner 0.01 µM)
Summary of the method: as §1

Row | Cell Line | relative viability (Cediranib + Foretinib; first compound 0.04 µM) | relative viability (Cediranib + Foretinib; first compound 0.1265 µM) | relative viability (Cediranib + Foretinib; first compound 0.4 µM) | relative viability (Cediranib + Foretinib; first compound 1.265 µM) | relative viability (Cediranib + Foretinib; first compound 4 µM) | relative viability (Cediranib + Vorinostat; first compound 0.04 µM) | relative viability (Cediranib + Vorinostat; first compound 0.1265 µM) | relative viability (Cediranib + Vorinostat; first compound 0.4 µM) | relative viability (Cediranib + Vorinostat; first compound 1.265 µM) | relative viability (Cediranib + Vorinostat; first compound 4 µM) | relative viability ([1]; first compound 0.001 µM) | relative viability ([1]; first compound 0.003162 µM) | relative viability ([1]; first compound 0.01 µM) | relative viability ([1]; first compound 0.03162 µM) | relative viability ([1]; first compound 0.1 µM) | relative viability ([2]; first compound 0.001 µM) | relative viability ([2]; first compound 0.003162 µM) | relative viability ([2]; first compound 0.01 µM) | relative viability ([2]; first compound 0.03162 µM) | relative viability ([2]; first compound 0.1 µM)
1 | NCI-H1437 | 1.34 | 1.22 | 1.24 | 1.25 | 1.32 | 0.875 | 0.778 | 0.872 | 0.819 | 0.898 | 0.548 | 0.604 | 0.504 | 0.483 | 0.253 | 1.12 | 1.1 | 1.1 | 1.04 | 0.879
2 | NCI-H1650 | 1.07 | 1.36 | 1.14 | 1.08 | 0.873 | 0.629 | 0.546 | 0.599 | 0.548 | 0.679 | 0.234 | 0.24 | 0.208 | 0.221 | 0.203 | 0.188 | 0.217 | 0.193 | 0.204 | 0.235
3 | NCI-H1651 | 0.827 | 0.763 | 0.685 | 0.831 | 0.829 | 0.518 | 0.591 | 0.58 | 0.53 | 0.555 | 0.93 | 0.972 | 0.915 | 0.898 | 0.903 | 0.7 | 0.797 | 0.802 | 0.65 | 0.427
4 | NCI-H1666 | 0.972 | 1.01 | 0.916 | 0.945 | 1 | 1.18 | 1.06 | 0.908 | 0.955 | 1.03 | 0.856 | 0.902 | 0.791 | 0.85 | 0.618 | 1.01 | 0.968 | 0.996 | 0.958 | 0.783
5 | NCI-H1734 | 0.813 | 0.911 | 0.822 | 0.853 | 0.979 | 0.718 | 0.805 | 0.77 | 0.768 | 0.911 | 1.14 | 0.919 | 0.939 | 0.814 | 0.632 | 0.198 | 0.199 | 0.224 | 0.233 | 0.187
6 | NCI-H1755 | 0.97 | 0.941 | 0.903 | 0.944 | 0.908 | 0.808 | 0.65 | 0.683 | 0.763 | 0.762 | 0.968 | 0.913 | 0.94 | 0.99 | 0.816 | 0.469 | 0.41 | 0.392 | 0.565 | 0.445
7 | NCI-H1915 | 1.14 | 1.01 | 1.08 | 1.11 | 1.13 | 0.5 | 0.426 | 0.485 | 0.501 | 0.544 | 0.522 | 1.05 | 0.93 | 1 | 0.973 | 0.787 | 0.826 | 0.794 | 0.719 | 0.55
8 | NCI-H1975 | 0.952 | 1.03 | 0.944 | 1.05 | 1.04 | 0.757 | 0.716 | 0.704 | 0.669 | 0.785 | 0.432 | 0.383 | 0.402 | 0.339 | 0.168 | 0.24 | 0.215 | 0.272 | 0.241 | 0.183
9 | NCI-H1993 | 0.798 | 0.936 | 0.763 | 0.739 | 0.53 |  | 0.633 | 0.727 | 0.567 | 0.688 | 1.27 | 1.14 | 1.07 | 1.27 | 0.786 | 1 | 1.05 | 0.699 | 0.863 | 0.682
10 | NCI-H2009 | 1.24 | 1.15 | 1.24 | 1.25 | 1.17 | 0.736 | 0.672 | 0.715 | 0.736 | 0.717 | 1.07 | 1.28 | 0.95 | 0.799 | 0.32 | 1.07 | 1.04 | 1.03 | 0.904 | 0.692
11 | NCI-H2023 | 0.775 | 0.922 | 0.924 | 0.878 | 1.01 | 0.739 | 0.4 | 0.545 | 0.723 | 0.9 | 0.981 | 1.07 | 0.957 | 0.421 | 0.0849 | 0.849 | 0.699 | 0.529 | 0.148 | 0.0557
12 | NCI-H2085 | 0.919 | 0.942 | 0.861 | 0.759 | 0.923 | 0.832 | 0.721 | 0.746 | 0.832 | 0.769 | 1.07 | 1.06 | 1.04 | 0.9 | 0.753 | 0.41 | 0.5 | 0.48 | 0.489 | 0.377
13 | NCI-H2087 | 1.19 | 1.06 | 0.944 | 1.15 | 1.29 | 0.939 | 0.694 | 0.474 | 0.671 | 0.63 | 0.758 | 0.839 | 0.86 | 0.676 | 0.917 | 0.179 | 0.152 | 0.178 | 0.174 | 0.134
14 | NCI-H2126 | 1.26 | 1.2 | 1.04 | 1.16 | 1.05 | 0.738 | 0.578 | 0.725 | 0.614 | 0.81 | 1.16 | 1.08 | 1.07 | 1.07 | 1.11 | 0.901 | 0.92 | 0.928 | 0.914 | 0.675
15 | NCI-H2228 | 0.986 | 0.882 | 0.761 | 0.838 | 0.99 | 0.719 | 0.763 | 0.633 | 0.563 | 0.529 | 1.06 | 0.856 | 0.988 | 0.426 | 0.151 | 0.136 | 0.139 | 0.12 | 0.118 | 0.126
16 | NCI-H2347 | 0.918 | 1.03 | 0.996 | 0.833 | 0.957 | 0.693 | 0.621 | 0.538 | 0.577 | 0.512 | 1.24 | 1.09 | 0.758 | 1.03 | 0.852 | 0.513 | 0.321 | 0.483 | 0.511 | 0.598
